PubChem BioAssay (NCI)
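Briefly, cells in 96-well plates were exposed to five compound concentrations for 48 h, and endpoints were estimated by linear interpolation. Abbreviation: GI50, concentration required for 50% inhibition of growth. The concentration for full growth arrest is given as TGI.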

What was measured:
Test in all cases: NCI anticancer screen, dose series, 48 h
EKVX NSCLC = test system: EKVX NSCLC
HL-60(TB) leukemia = test system: HL-60(TB) leukemia
HT29 colon = test system: HT29 colon
RPMI-8226 leukemia = test system: RPMI-8226 leukemia
A498 renal = test system: A498 renal
MOLT-4 leukemia = test system: MOLT-4 leukemia
T-47D breast = test system: T-47D breast
UACC-257 melanoma = test system: UACC-257 melanoma
K-562 leukemia = test system: K-562 leukemia
KM12 colon = test system: KM12 colon
SF-539 CNS = test system: SF-539 CNS
OVCAR-5 ovarian = test system: OVCAR-5 ovarian
SNB-19 CNS = test system: SNB-19 CNS
HOP-92 NSCLC = test system: HOP-92 NSCLC
OVCAR-3 ovarian = test system: OVCAR-3 ovarian
SN12C renal = test system: SN12C renal
CAKI-1 renal = test system: CAKI-1 renal
DU-145 prostate = test system: DU-145 prostate
U251 CNS = test system: U251 CNS
SF-268 CNS = test system: SF-268 CNS
SK-OV-3 ovarian = test system: SK-OV-3 ovarian
SF-295 CNS = test system: SF-295 CNS
UACC-62 melanoma = test system: UACC-62 melanoma
HCT-15 colon = test system: HCT-15 colon
CCRF-CEM leukemia = test system: CCRF-CEM leukemia
SK-MEL-28 melanoma = test system: SK-MEL-28 melanoma
MDA-MB-435 = test system: MDA-MB-435
A549 NSCLC = test system: A549 NSCLC
TK-10 renal = test system: TK-10 renal
LOX IMVI melanoma = test system: LOX IMVI melanoma
M14 melanoma = test system: M14 melanoma
NCI-H460 lung = test system: NCI-H460 lung
PC-3 prostate = test system: PC-3 prostate
SK-MEL-5 melanoma = test system: SK-MEL-5 melanoma
NCI-H522 lung = test system: NCI-H522 lung
IGROV1 ovarian = test system: IGROV1 ovarian
COLO 205 colon = test system: COLO 205 colon
HCC-2998 colon = test system: HCC-2998 colon
HCT-116 colon = test system: HCT-116 colon
NCI/ADR-RES ovarian = test system: NCI/ADR-RES ovarian
MDA-MB-231 breast = test system: MDA-MB-231 breast
SNB-75 CNS = test system: SNB-75 CNS
SR leukemia = test system: SR leukemia
786-0 renal = test system: 786-0 renal
HS 578T breast = test system: HS 578T breast
BT-549 breast = test system: BT-549 breast
MALME-3M melanoma = test system: MALME-3M melanoma
OVCAR-4 ovarian = test system: OVCAR-4 ovarian
MCF7 breast = test system: MCF7 breast
OVCAR-8 ovarian = test system: OVCAR-8 ovarian
SK-MEL-2 melanoma = test system: SK-MEL-2 melanoma
RXF 393 renal = test system: RXF 393 renal
NCI-H226 lung = test system: NCI-H226 lung
SW-620 colon = test system: SW-620 colon
ACHN renal = test system: ACHN renal
UO-31 renal = test system: UO-31 renal

Compound `C/C(=N\NC(=O)CSc1nc2sc3c(c2c(=O)n1-c1ccccc1)CCC(C)C3)c1ccc(Cl)cc1` (configuration not stated) has a GI50 (EKVX NSCLC) of 5.08 µM, a TGI (EKVX NSCLC) greater than 100 µM and a GI50 (HL-60(TB) leukemia) of 1.51 µM. It also gave a TGI (HL-60(TB) leukemia) greater than 100 µM, a GI50 (HT29 colon) of 3.13 µM and a TGI (HT29 colon) of 13.3 µM. The GI50 (RPMI-8226 leukemia) was 2.83 µM, the TGI (RPMI-8226 leukemia) was greater than 100 µM and the GI50 (A498 renal) was greater than 100 µM. The TGI (A498 renal) was greater than 100 µM, the GI50 (MOLT-4 leukemia) was 0.575 µM and the TGI (MOLT-4 leukemia) was greater than 100 µM. It also gave a GI50 (T-47D breast) of 3.55 µM, a TGI (T-47D breast) of 68 µM and a GI50 (UACC-257 melanoma) of 16.1 µM. For the same compound, the TGI (UACC-257 melanoma) was 95.1 µM, the GI50 (K-562 leukemia) was 0.592 µM and the TGI (K-562 leukemia) was greater than 100 µM. The GI50 (KM12 colon) was 2.66 µM, the TGI (KM12 colon) was greater than 100 µM and the GI50 (SF-539 CNS) was 0.866 µM. It also gave a TGI (SF-539 CNS) of 4.02 µM, a GI50 (OVCAR-5 ovarian) of 3.52 µM and a TGI (OVCAR-5 ovarian) greater than 100 µM. For the same compound, the GI50 (SNB-19 CNS) was 4.89 µM, the TGI (SNB-19 CNS) was greater than 100 µM and the GI50 (HOP-92 NSCLC) was 1.33 µM. The TGI (HOP-92 NSCLC) was 9.88 µM, the GI50 (OVCAR-3 ovarian) was 3.33 µM and the TGI (OVCAR-3 ovarian) was greater than 100 µM. It also gave a GI50 (SN12C renal) of 3.4 µM, a TGI (SN12C renal) greater than 100 µM and a GI50 (CAKI-1 renal) of 2.04 µM. For the same compound, the TGI (CAKI-1 renal) was greater than 100 µM, the GI50 (DU-145 prostate) was 3.63 µM and the TGI (DU-145 prostate) was greater than 100 µM. For the same compound, the GI50 (U251 CNS) was 1.98 µM, the TGI (U251 CNS) was greater than 100 µM and the GI50 (SF-268 CNS) was 3.73 µM. The TGI (SF-268 CNS) was greater than 100 µM, the GI50 (SK-OV-3 ovarian) was 3.68 µM and the TGI (SK-OV-3 ovarian) was 36.5 µM. The GI50 (SF-295 CNS) was 4.18 µM, the TGI (SF-295 CNS) was greater than 100 µM and the GI50 (UACC-62 melanoma) was 3.57 µM. For the same compound, the TGI (UACC-62 melanoma) was greater than 100 µM, the GI50 (HCT-15 colon) was 0.387 µM and the TGI (HCT-15 colon) was 25.7 µM. The GI50 (CCRF-CEM leukemia) was 0.742 µM, the TGI (CCRF-CEM leukemia) was greater than 100 µM and the GI50 (SK-MEL-28 melanoma) was 7.76 µM. For the same compound, the TGI (SK-MEL-28 melanoma) was greater than 100 µM, the GI50 (MDA-MB-435) was 3.86 µM and the TGI (MDA-MB-435) was 66.1 µM. For the same compound, the GI50 (A549 NSCLC) was 2.57 µM, the TGI (A549 NSCLC) was greater than 100 µM and the GI50 (TK-10 renal) was 4.64 µM. The TGI (TK-10 renal) was greater than 100 µM, the GI50 (LOX IMVI melanoma) was 0.348 µM and the TGI (LOX IMVI melanoma) was 15.7 µM. It also gave a GI50 (M14 melanoma) of 2.34 µM, a TGI (M14 melanoma) of 14.1 µM and a GI50 (NCI-H460 lung) of 1.16 µM. For the same compound, the TGI (NCI-H460 lung) was greater than 100 µM, the GI50 (PC-3 prostate) was 3.26 µM and the TGI (PC-3 prostate) was greater than 100 µM. For the same compound, the GI50 (SK-MEL-5 melanoma) was 4.8 µM, the TGI (SK-MEL-5 melanoma) was 19.5 µM and the GI50 (NCI-H522 lung) was 3.39 µM. For the same compound, the TGI (NCI-H522 lung) was 39.1 µM, the GI50 (IGROV1 ovarian) was 2.82 µM and the TGI (IGROV1 ovarian) was greater than 100 µM. For the same compound, the GI50 (COLO 205 colon) was 2.94 µM, the TGI (COLO 205 colon) was 17.5 µM and the GI50 (HCC-2998 colon) was 2.76 µM. For the same compound, the TGI (HCC-2998 colon) was greater than 100 µM, the GI50 (HCT-116 colon) was 0.578 µM and the TGI (HCT-116 colon) was greater than 100 µM. For the same compound, the GI50 (NCI/ADR-RES ovarian) was 2.63 µM, the TGI (NCI/ADR-RES ovarian) was 12.6 µM and the GI50 (MDA-MB-231 breast) was 4.67 µM. It also gave a TGI (MDA-MB-231 breast) greater than 100 µM, a GI50 (SNB-75 CNS) of 2.55 µM and a TGI (SNB-75 CNS) of 13.7 µM. The GI50 (SR leukemia) was 0.735 µM, the TGI (SR leukemia) was greater than 100 µM and the GI50 (786-0 renal) was 0.366 µM. It also gave a TGI (786-0 renal) of 38.1 µM, a GI50 (HS 578T breast) of 8.85 µM and a TGI (HS 578T breast) greater than 100 µM. It also gave a GI50 (BT-549 breast) of 3.6 µM, a TGI (BT-549 breast) of 26.5 µM and a GI50 (MALME-3M melanoma) of 11.8 µM. The TGI (MALME-3M melanoma) was greater than 100 µM, the GI50 (OVCAR-4 ovarian) was 2.2 µM and the TGI (OVCAR-4 ovarian) was greater than 100 µM. For the same compound, the GI50 (MCF7 breast) was 0.439 µM, the TGI (MCF7 breast) was greater than 100 µM and the GI50 (OVCAR-8 ovarian) was 3.31 µM. The TGI (OVCAR-8 ovarian) was 84.7 µM, the GI50 (SK-MEL-2 melanoma) was 2.31 µM and the TGI (SK-MEL-2 melanoma) was 14.7 µM. For the same compound, the GI50 (RXF 393 renal) was 1.53 µM, the TGI (RXF 393 renal) was 8.71 µM and the GI50 (NCI-H226 lung) was 13 µM. For the same compound, the TGI (NCI-H226 lung) was 52.7 µM, the GI50 (SW-620 colon) was 3.26 µM and the TGI (SW-620 colon) was greater than 100 µM. The GI50 (ACHN renal) was 1.7 µM, the TGI (ACHN renal) was greater than 100 µM and the GI50 (UO-31 renal) was 2.11 µM. It also gave a TGI (UO-31 renal) of 15.8 µM.
